Assay results taken from patent US10752596B2, “Nitrogen-containing heteroaryl compound and pharmaceutical use thereof” (JAPAN TOBACCO INC., priority 2017, dated 2020).

Target: human GLUT9 (Homo sapiens (Human), UniProt Q9NRM0)
Assay: Evaluation of human GLUT9 inhibitory activity ([14C] uric acid uptake in human GLUT9 expressing HEK293T cells transduced with Uricase/Hyper)
Format: cell-based
Settings: final 300 μM uric acid, 6 min, human GLUT9 stably expressing HEK293T cells, read-out: humans GLUT9 inhibitory activity (IC50 value (μM))
Description: A method for measuring GLUT9 inhibitory activity using human GLUT9 expressing cells transduced with Uricase/Hyper is shown hereinafter. GLUT9 inhibitory activity ([…]) of the test compound was calculated based on the intracellular uptake amount of labeled uric acid ([^14C] uric acid) transported by GLUT9.
1. Preparation of Human GLUT9 Expression Plasmid
Human GLUT9S coding region (NM_001001290.1) was amplified by PCR method using PrimeSTAR MAX DNA Polymerase (Takara Bio). The obtained PCR product was subjected to agarose gel electrophoresis, and the desired size of PCR product was purified by QIAquick Gel Extraction Kit (QIAGEN). Next, pEBMulti-Bsd vector (Wako Pure Chemical Industries, Ltd.) was subjected to digestion using restriction enzymes SalI and EcoR V, and linked to the PCR product containing GLUT9S by In-Fusion reaction using In-Fusion HD Cloning Kit (Takara Bio). XL10-Gold Competent Cells (Agilent Technologies) were transformed in In-Fusion reaction solution, and the obtained transfectants were cultured with shaking overnight in LB medium to which Blasticidin S HCl (Thermo Fisher Scientific) was added. Human GLUT9 expression plasmid DNA was prepared from the collected transfectants using EndoFree Plasmid Kit (Takara Bio).
2. Establish of Human GLUT9 Stably Expressing Cell
HEK293T cells (American Type Culture Collection, DS Pharma Biomedical) were seeded in a 6 well plate at 1×10^6 cells/well. Next day, human GLUT9 expression plasmid was transfected by using Lipofectamine 3000 Reagent (Thermo Fisher Scientific) as follows. Lipofectamine 3000 Reagent (5 μL) was diluted with Opti-MEM (125 μL, Thermo Fisher Scientific). Separately, plasmid DNA (2.5 μg) was diluted with Opti-MEM (125 μL), and P3000 Reagent (5 μL) was added thereto. The obtained solution was mixed with the previously obtained diluted solution, and the mixture was left stand at room temperature for 5 min, and added to the cells. Next day, the transfected cells were diluted and reseeded in a 6 well plate at 4×10^5 cells/well, and drug selection was performed in the presence of 30 μg/mL of Blasticidin S HCl, and thereby, Blasticidin-resistant human GLUT9 stably expressing cell line was established. Mock cells were prepared by introducing pEBMulti-Bsd vector into HEK293T cells in a similar manner.
3. Preparation of Uricase/Hyper Expression Plasmid
Uricase/Hyper expression plasmid was prepared by linking the coding regions of Aspergillus Flavus-derived uricase gene and pHyPer-Cyto vector (Evrogen) HyPer gene to the pEBMulti-Hyg vector (Wako Pure Chemical Industries, Ltd.) and then introducing it. The preparation method was performed by reference to Gout and Nucleic Acid Metabolism 2013, 37(2), 93-101, and seven repeated linker sequence of glycine-glycine-glycine-serine was prepared herein.
4. Preparation of Human GLUT9-Uricase/Hyper Coexpressing Cell
Human GLUT9 stably expressing cells were seeded at 3.6×10^7 cells per 225 cm^2 flask. Next day, Uricase/Hyper expression plasmid was transfected by using Lipofectamine 3000 Reagent as follows. Lipofectamine 3000 Reagent (40 μL) was diluted with Opti-MEM (750 μL). Separately, plasmid DNA (20 μg) was diluted with Opti-MEM (750 μL), and P3000 Reagent (40 μL) was added thereto. The obtained solution was mixed with the previously obtained diluted solution, and the mixture was left stand at room temperature for 5 min, and added to the cells. Next day, transfected cells were collected to prepare human GLUT9-Uricase/Hyper coexpressing cells.
5. Evaluation of GLUT9 Inhibitory Activity
Uricase/Hyper transiently-transfected human GLUT9 stably expressing cells or mock cells (blank) were seeded in a 96 well plate (Corning) at 1.6×10^5 cells/well, and cultured overnight at 37° C., 5% CO2. D-MEM/high glucose (Wako Pure Chemical Industries, Ltd.) containing 10% Fetal Bovine Serum (Lifetechnology) and 100 units/ml penicillin/100 μg/ml streptomycin (GIBCO) was used as a medium.

Chain of human GLUT9 (Q9NRM0 other isoform, or with tags, fused parts or gaps): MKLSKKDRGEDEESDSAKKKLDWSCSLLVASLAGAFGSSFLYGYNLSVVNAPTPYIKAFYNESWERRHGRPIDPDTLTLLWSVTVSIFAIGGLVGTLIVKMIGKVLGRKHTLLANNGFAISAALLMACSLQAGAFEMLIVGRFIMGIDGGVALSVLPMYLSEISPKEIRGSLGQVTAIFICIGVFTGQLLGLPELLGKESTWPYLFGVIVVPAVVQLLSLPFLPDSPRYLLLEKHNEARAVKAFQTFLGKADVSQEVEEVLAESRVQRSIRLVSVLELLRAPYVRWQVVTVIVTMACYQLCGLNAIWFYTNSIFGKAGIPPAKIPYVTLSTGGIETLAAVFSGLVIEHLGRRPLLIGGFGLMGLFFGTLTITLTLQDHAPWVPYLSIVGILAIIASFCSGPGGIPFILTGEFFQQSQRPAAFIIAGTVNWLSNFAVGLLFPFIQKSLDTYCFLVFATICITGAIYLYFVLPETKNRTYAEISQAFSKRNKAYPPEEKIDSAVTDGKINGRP

Row | Compound | IC50 [µM]
1 | CCCOCc1cnc(-c2ccc(OC)cc2)c(-c2ccc(C(=O)O)cc2)c1 [Example 118, 4-(2-(4-methoxyphenyl)-5-(propoxymethyl)pyridin-3-yl)benzoic Acid] | 0.108
2 | COCCOCCCc1cnc(-c2ccc(OC)cc2)c(-c2ccc(C(=O)O)cc2)c1 [Example 119] | 0.501
3 | COCCCc1cnc(-c2ccc(OC)cc2)c(-c2ccc(C(=O)O)c(Cl)c2)c1 [Example 120] | 0.539
4 | COCCCc1cnc(-c2cc(F)c(OC)c(F)c2)c(-c2ccc(C(=O)O)c(Cl)c2)n1 [Example 121] | 0.501
5 | COCCCCc1cnc(-c2ccc(OC)cc2)c(-c2ccc(C(=O)O)cc2)c1 [Example 123] | 0.0589
6 | COCCCCc1cnc(-c2ccc(OC)cc2)c(-c2ccc(C(=O)O)c(Cl)c2)c1 [Example 125] | 0.229
7 | COCCCCc1cnc(-c2ccc(OC)cc2)c(-c2ccc(C(=O)O)c(C)c2)c1 [Example 126] | 0.0497
8 | COCCCCc1cnc(-c2ccc(OC)cc2)c(-c2ccc(CCC(=O)O)cc2)c1 [Example 127] | 0.0688
9 | COCCCCc1cnc(-c2cc(F)c(OC)c(F)c2)c(-c2ccc(C(=O)O)cc2)c1 [Example 129] | 0.0569
10 | COCCCCc1cnc(-c2cc(F)c(OC)c(F)c2)c(-c2ccc(C(=O)O)c(C)c2)c1 [Example 130] | 0.0521
11 | COCCCCc1cnc(-c2cc(F)c(OC)c(F)c2)c(-c2ccc(C(=O)O)c(Cl)c2)c1 [Example 131] | 0.155
12 | COCCCCc1cnc(-c2cc(F)c(OC)c(F)c2)c(-c2ccc(CCC(=O)O)cc2)c1 [Example 132] | 0.0519
13 | CCOCCc1cnc(-c2cc(F)c(OC)c(F)c2)c(-c2ccc(C(=O)O)c(C)c2)n1 [Example 133] | 0.313
14 | CCOCCc1cnc(-c2cc(F)c(OC)c(F)c2)c(-c2ccc(CCC(=O)O)cc2)n1 [Example 134] | 0.525
15 | COCCCCc1cnc(-c2cc(F)c(OC)c(F)c2)c(-c2ccc(C(=O)O)c(C)c2)n1 [Example 135] | 0.0613
16 | COCCCCc1cnc(-c2cc(F)c(OC)c(F)c2)c(-c2ccc(C(=O)O)c(Cl)c2)n1 [Example 136] | 0.25

Row | Compound | IC50 [µM]
17 | CCOCCc1cnc(-c2ccc(OC)cc2)c(-c2ccc(C(=O)O)c(C)c2)c1 [Example 137] | 0.0917
18 | CCOCCc1cnc(-c2ccc(OC)cc2)c(-c2ccc(C(=O)O)c(Cl)c2)c1 [Example 138] | 0.499
19 | CCOCCc1cnc(-c2ccc(OC)cc2)c(-c2ccc(CCC(=O)O)cc2)c1 [Example 139] | 0.167
20 | CCOCCc1cnc(-c2cc(F)c(OC)c(F)c2)c(-c2ccc(C(=O)O)cc2)c1 [Example 140] | 0.0713
21 | CCOCCc1cnc(-c2cc(F)c(OC)c(F)c2)c(-c2ccc(C(=O)O)c(C)c2)c1 [Example 141] | 0.0639
22 | CCOCCc1cnc(-c2cc(F)c(OC)c(F)c2)c(-c2ccc(C(=O)O)c(Cl)c2)c1 [Example 142] | 0.226
23 | CCCOCc1cnc(-c2ccc(OC)cc2)c(-c2ccc(C(=O)O)c(C)c2)c1 [Example 143] | 0.125
24 | CCCOCc1cnc(-c2cc(F)c(OC)c(F)c2)c(-c2ccc(CCC(=O)O)cc2)c1 [Example 146] | 0.139
25 | CCCOCc1cnc(-c2cc(F)c(OC)c(F)c2)c(-c2ccc(C(=O)O)c(C)c2)c1 [Example 147] | 0.0868
26 | COCCCCc1cnc(-c2cc(F)c(OC)c(F)c2)c(-c2ccc(CCC(=O)O)cc2)n1 [Example 148] | 0.0807
27 | COc1c(F)cc(-c2ncc(CC(C)C)nc2-c2ccc(C(=O)O)c(C)c2)cc1F [Example 149] | 0.0574
28 | COc1c(F)cc(-c2ncc(CC(C)C)nc2-c2ccc(CCC(=O)O)cc2)cc1F [Example 150] | 0.102
29 | COc1c(F)cc(-c2ncc(CC(C)C)nc2-c2ccc(C(=O)O)c(Cl)c2)cc1F [Example 151] | 0.106
30 | CCCCc1cnc(-c2cc(F)c(OC)c(F)c2)c(-c2ccc(C(=O)O)c(C)c2)n1 [Example 152] | 0.059
31 | CCCCc1cnc(-c2cc(F)c(OC)c(F)c2)c(-c2ccc(CCC(=O)O)cc2)n1 [Example 153] | 0.102
